Laboratory results taken from ChEMBL document CHEMBL1201862, “PubChem BioAssay data set” (2004).
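Cultured in 96-well plates, cells were exposed to test compound for 48 hours across five concentrations. The concentration for 50% growth inhibition is given as GI50.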 Calls of active or inactive are those of the source. Rule as the data show it: active = GI50 up to about 1.1 µM and inactive = higher.

Legend:
Experiment in all cases: inhibition of tumour cell growth, NCI panel, 48 h
786-0 = system: 786-0
BT-549 = system: BT-549
DU-145 = system: DU-145
HCT-15 = system: HCT-15
HL-60 = system: HL-60
Hs-578T = system: Hs-578T
IGROV-1 = system: IGROV-1
LOX IMVI = system: LOX IMVI
M14 = system: M14
MCF7 = system: MCF7
MDA-MB-435 = system: MDA-MB-435
MDA-N = system: MDA-N
NCI-H522 = system: NCI-H522
NCI/ADR-RES = system: NCI/ADR-RES
OVCAR-4 = system: OVCAR-4
PC-3 = system: PC-3
SR = system: SR
T47D = system: T47D
MDA-MB-231 = system: MDA-MB-231

SMILES	GI50 (786-0)	GI50 (BT-549)	GI50 (DU-145)	GI50 (HCT-15)	GI50 (HL-60)	GI50 (Hs-578T)	GI50 (IGROV-1)	GI50 (LOX IMVI)	GI50 (M14)	GI50 (MCF7)	GI50 (MDA-MB-435)	GI50 (MDA-N)	GI50 (NCI-H522)	GI50 (NCI/ADR-RES)	GI50 (OVCAR-4)	GI50 (PC-3)	GI50 (SR)	GI50 (T47D)	GI50 (MDA-MB-231)
Cc1ccc([N+](=O)[O-])cc1S(=O)(=O)Nc1ccc(C2=NNC(c3cccs3)C2)cc1 (stereo unspecified)	31.3 µM (inactive)	23.2 µM (inactive)	30.3 µM (inactive)	17 µM	0.0627 µM (active)	58.2 µM (inactive)	58.9 µM (inactive)	28.7 µM (inactive)	25.5 µM (inactive)	13.7 µM (inactive)	35.6 µM (inactive)	34.9 µM (inactive)	24.7 µM (inactive)	26.5 µM (inactive)	22 µM (inactive)	33.3 µM (inactive)	20 µM (inactive)	4.85 µM (inactive)	–
Cc1ccc([N+](=O)[O-])cc1/N=N/C(=O)NNc1cc([N+](=O)[O-])ccc1C	–	22.5 µM (inactive)	35.3 µM (inactive)	21.7 µM	48.2 µM (inactive)	26.4 µM (inactive)	> 10 µM (inactive)	–	18.9 µM (inactive)	26.4 µM (inactive)	22.2 µM (inactive)	26.6 µM (inactive)	15.8 µM (inactive)	27.9 µM (inactive)	–	17.6 µM (inactive)	52.8 µM (inactive)	31.3 µM (inactive)	15.5 µM (inactive)
CSC1NC(c2ccccc2)=C(C#N)C(=O)N1C1OCC(OC(C)=O)C(OC(C)=O)C1OC(C)=O (stereo unspecified)	> 100 µM (inactive)	> 100 µM (inactive)	> 100 µM (inactive)	> 100 µM	–	> 100 µM (inactive)	> 100 µM (inactive)	> 100 µM (inactive)	> 100 µM (inactive)	> 100 µM (inactive)	> 100 µM (inactive)	> 100 µM (inactive)	> 100 µM (inactive)	> 100 µM (inactive)	> 100 µM (inactive)	> 100 µM (inactive)	> 100 µM (inactive)	–	> 100 µM (inactive)
CCOC(=O)c1csc(NC(=O)CCCC#N)n1	–	–	> 100 µM (inactive)	> 100 µM	> 100 µM (inactive)	> 100 µM (inactive)	–	> 100 µM (inactive)	> 100 µM (inactive)	> 100 µM (inactive)	> 100 µM (inactive)	> 100 µM (inactive)	–	> 100 µM (inactive)	> 100 µM (inactive)	> 100 µM (inactive)	> 100 µM (inactive)	> 100 µM (inactive)	> 100 µM (inactive)
CN(C)C/C=C(/c1ccc(Br)cc1)c1cccnc1	94 µM (inactive)	79.4 µM (inactive)	> 100 µM (inactive)	> 100 µM	0.0165 µM (active)	48 µM (inactive)	> 100 µM (inactive)	–	20.2 µM (inactive)	63.8 µM (inactive)	32.9 µM (inactive)	38.3 µM (inactive)	56.4 µM (inactive)	69.5 µM (inactive)	> 100 µM (inactive)	> 100 µM (inactive)	34.8 µM (inactive)	58.7 µM (inactive)	32.7 µM (inactive)
N#CC(=N)c1ncn(-c2ccccc2N)c1N	> 100 µM (inactive)	> 100 µM (inactive)	> 100 µM (inactive)	> 100 µM	> 100 µM (inactive)	> 100 µM (inactive)	> 100 µM (inactive)	> 100 µM (inactive)	> 100 µM (inactive)	> 100 µM (inactive)	> 100 µM (inactive)	> 100 µM (inactive)	> 100 µM (inactive)	> 100 µM (inactive)	> 100 µM (inactive)	> 100 µM (inactive)	> 100 µM (inactive)	> 100 µM (inactive)	> 100 µM (inactive)
CCOC(=O)CNC(=O)C(CCC(=O)N(C)O)NC(=O)CCC(N)C(=O)O (stereo unspecified)	> 100 µM (inactive)	> 100 µM (inactive)	> 100 µM (inactive)	> 100 µM	> 100 µM (inactive)	> 100 µM (inactive)	> 100 µM (inactive)	> 100 µM (inactive)	> 100 µM (inactive)	> 100 µM (inactive)	> 100 µM (inactive)	> 100 µM (inactive)	> 100 µM (inactive)	> 100 µM (inactive)	> 100 µM (inactive)	> 100 µM (inactive)	–	> 100 µM (inactive)	> 100 µM (inactive)
COc1ccc([C@H]2C=[N+]([O-])O[C@H](OC3CCCC3)[C@@H]2OC(C)=O)cc1OC	–	–	29.3 µM (inactive)	29.2 µM	18.5 µM (inactive)	29.9 µM (inactive)	18.3 µM (inactive)	15.4 µM (inactive)	21.4 µM (inactive)	22.3 µM (inactive)	25.4 µM (inactive)	37.8 µM (inactive)	5.66 µM (inactive)	31.8 µM (inactive)	33.6 µM (inactive)	44.8 µM (inactive)	41.8 µM (inactive)	16.1 µM (inactive)	32.7 µM (inactive)
O=C(NNC(=S)NCc1ccccc1)C12CC3CC(CC(C3)C1)C2	96.8 µM (inactive)	> 100 µM (inactive)	85.9 µM (inactive)	53.3 µM	22.4 µM (inactive)	> 100 µM (inactive)	> 100 µM (inactive)	35.4 µM (inactive)	74.3 µM (inactive)	61.4 µM (inactive)	87.3 µM (inactive)	67.9 µM (inactive)	> 100 µM (inactive)	89.1 µM (inactive)	76.6 µM (inactive)	25.8 µM (inactive)	9.33 µM (inactive)	49.2 µM (inactive)	> 100 µM (inactive)
C1CCC2(CC1)O[C@@H]1[C@@H](O2)[C@@H](O[C@H]2O[C@@H]3COC4(CCCCC4)O[C@H]3[C@@H]3OC4(CCCCC4)O[C@@H]23)O[C@@H]2COC3(CCCCC3)O[C@@H]12	> 100 µM (inactive)	> 100 µM (inactive)	> 100 µM (inactive)	–	11.4 µM (inactive)	> 100 µM (inactive)	> 100 µM (inactive)	> 100 µM (inactive)	> 100 µM (inactive)	> 100 µM (inactive)	> 100 µM (inactive)	> 100 µM (inactive)	> 100 µM (inactive)	> 100 µM (inactive)	> 100 µM (inactive)	> 100 µM (inactive)	–	> 100 µM (inactive)	> 100 µM (inactive)
Cc1c(Cl)cccc1NC(=O)/C=C/c1ccccc1	62.7 µM (inactive)	> 100 µM (inactive)	> 100 µM (inactive)	> 100 µM	> 100 µM (inactive)	38.3 µM (inactive)	> 100 µM (inactive)	> 100 µM (inactive)	> 100 µM (inactive)	> 100 µM (inactive)	> 100 µM (inactive)	> 100 µM (inactive)	> 100 µM (inactive)	–	> 100 µM (inactive)	> 100 µM (inactive)	50.7 µM (inactive)	> 100 µM (inactive)	17.7 µM (inactive)
CC(NC(=O)Cc1ccccc1)NC(=O)C(C)C(=O)NCc1ccccc1 (stereo unspecified)	> 100 µM (inactive)	27.9 µM (inactive)	> 100 µM (inactive)	> 100 µM	> 100 µM (inactive)	30.3 µM (inactive)	50.9 µM (inactive)	–	> 100 µM (inactive)	> 100 µM (inactive)	> 100 µM (inactive)	> 100 µM (inactive)	> 100 µM (inactive)	> 100 µM (inactive)	> 100 µM (inactive)	> 100 µM (inactive)	> 100 µM (inactive)	> 100 µM (inactive)	46.8 µM (inactive)
COc1ccc2c(C)cc(N/N=C/c3sccc3C)nc2c1	–	13.1 µM (inactive)	6.68 µM (inactive)	6.03 µM	46.8 µM (inactive)	12.5 µM (inactive)	5.82 µM (inactive)	7.59 µM (inactive)	11.8 µM (inactive)	11.4 µM (inactive)	16.6 µM (inactive)	14.3 µM (inactive)	10.2 µM (inactive)	10 µM (inactive)	20.9 µM (inactive)	12.9 µM (inactive)	22.9 µM (inactive)	7.76 µM (inactive)	1.43 µM (inactive)
Clc1ccc2c(c1)CC1C[N+]3=C(CCCCC3)C1=C2 (stereo unspecified)	> 100 µM (inactive)	26.5 µM (inactive)	> 100 µM (inactive)	> 100 µM	> 100 µM (inactive)	85.3 µM (inactive)	37.2 µM (inactive)	43.3 µM (inactive)	57.3 µM (inactive)	64 µM (inactive)	59.2 µM (inactive)	94.2 µM (inactive)	38.8 µM (inactive)	> 100 µM (inactive)	54.8 µM (inactive)	42.1 µM (inactive)	–	29.6 µM (inactive)	33 µM (inactive)
CO[C@@H]1O[C@H](C(=O)c2ccccc2)[C@H]2OC(C)(C)O[C@@H]12	> 100 µM (inactive)	68.9 µM (inactive)	54.5 µM (inactive)	55.2 µM	21.1 µM (inactive)	83 µM (inactive)	> 100 µM (inactive)	> 100 µM (inactive)	> 100 µM (inactive)	> 100 µM (inactive)	85.3 µM (inactive)	> 100 µM (inactive)	> 100 µM (inactive)	74.1 µM (inactive)	> 100 µM (inactive)	> 100 µM (inactive)	57.8 µM (inactive)	> 100 µM (inactive)	79.3 µM (inactive)
c1ccc(/N=C2/SC3=Nc4cccc5cccc(c45)N3/C2=N/c2ccccc2)cc1	–	> 100 µM (inactive)	> 100 µM (inactive)	> 100 µM	> 100 µM (inactive)	> 100 µM (inactive)	> 100 µM (inactive)	–	> 100 µM (inactive)	> 100 µM (inactive)	> 100 µM (inactive)	> 100 µM (inactive)	> 100 µM (inactive)	> 100 µM (inactive)	–	> 100 µM (inactive)	> 100 µM (inactive)	> 100 µM (inactive)	> 100 µM (inactive)
